How the values were obtained:
CB1 receptor = target: T1, CB1 receptor (Homo sapiens, UniProt P21554); assay: CB1 antagonist cAMP assay (HitHunter cAMP XS+), CP55,940 challenge; type: cell-based; conditions: for Emax: CHO-K1, read-out: CB1 antagonist activity, % of the maximum response of AM251; for Concentration at which CB1 antagonist activity above the baseline appeared: CP55,940 1 nM, CHO-K1
T1 construct: host or cells: CHO-K1
Method: (§1) In summary, cells were seeded in a total volume of 20 µL (10,000 cells) into white-walled, 384-well microplates and incubated at 37 °C for the appropriate time prior to testing.
(§2) For the CB1 and CB2 antagonist assays, cells were pre-incubated with antagonists/compounds, followed by an agonist challenge at an ~EC80 concentration. Similar to the agonist assay, before adding the ligands, media were aspirated from cells and replaced with 15 µL 2:1 HBSS/10mM HEPES/cAMP XS+ Ab reagent. A total of 5 μL of 4× compound solution, prepared in a separate plate by a 10-point series of 3-fold compound serial dilutions in assay buffer (forskolin excluded), was added to the cells and incubated at 37 °C for 30 min. […] The assay signal was generated through incubation with 20 μL cAMP XS+ ED/CL lysis cocktail for one hour, followed by incubation with 20 μL cAMP XS+ EA reagent for three hours at room temperature. A PerkinElmer Envision instrument was used for chemiluminescent signal detection.

CB2 receptor [1] = target: T2, CB2 receptor (Homo sapiens, UniProt P34972); assay: CB2 antagonist cAMP assay (HitHunter cAMP XS+), CP55,940 challenge; type: cell-based; conditions: for Emax: read-out: CB2 antagonist activity, % of the maximum effect of SR144528, highest tested concentration (12 µM), CP55,940 1 nM
T2 construct: host or cells: CHO-K1 (from the C2 catalogue suffix and 'same protocol' as CB1)
T2 sequence (P34972 whole entry): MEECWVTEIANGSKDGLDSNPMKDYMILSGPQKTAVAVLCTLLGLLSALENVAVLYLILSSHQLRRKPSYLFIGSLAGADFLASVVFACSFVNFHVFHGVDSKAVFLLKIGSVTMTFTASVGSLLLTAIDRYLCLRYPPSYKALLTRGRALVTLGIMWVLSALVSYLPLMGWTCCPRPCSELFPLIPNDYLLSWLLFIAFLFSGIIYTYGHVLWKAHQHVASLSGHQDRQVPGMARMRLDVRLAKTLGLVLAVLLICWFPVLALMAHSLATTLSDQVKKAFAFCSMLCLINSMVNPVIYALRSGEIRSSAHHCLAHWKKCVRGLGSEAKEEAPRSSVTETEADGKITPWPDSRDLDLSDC
Method: In summary, cells were seeded in a total volume of 20 µL (10,000 cells) into white-walled, 384-well microplates and incubated at 37 °C for the appropriate time prior to testing. […] The assay signal was generated through incubation with 20 μL cAMP XS+ ED/CL lysis cocktail for one hour, followed by incubation with 20 μL cAMP XS+ EA reagent for three hours at room temperature. Microplates were read following signal generation with a PerkinElmer Envision instrument for chemiluminescent signal detection.
as §2

dopamine D2S receptor = target: T3, dopamine D2S receptor (Homo sapiens, UniProt P14416); assay: D2S agonist HitHunter cAMP XS+ assay; type: cell-based; design: Emax: dose or concentration left out as unconfirmed
T3 construct: host or cells: CHO-K1
T3 sequence (P14416 1-414 isoform P14416-2): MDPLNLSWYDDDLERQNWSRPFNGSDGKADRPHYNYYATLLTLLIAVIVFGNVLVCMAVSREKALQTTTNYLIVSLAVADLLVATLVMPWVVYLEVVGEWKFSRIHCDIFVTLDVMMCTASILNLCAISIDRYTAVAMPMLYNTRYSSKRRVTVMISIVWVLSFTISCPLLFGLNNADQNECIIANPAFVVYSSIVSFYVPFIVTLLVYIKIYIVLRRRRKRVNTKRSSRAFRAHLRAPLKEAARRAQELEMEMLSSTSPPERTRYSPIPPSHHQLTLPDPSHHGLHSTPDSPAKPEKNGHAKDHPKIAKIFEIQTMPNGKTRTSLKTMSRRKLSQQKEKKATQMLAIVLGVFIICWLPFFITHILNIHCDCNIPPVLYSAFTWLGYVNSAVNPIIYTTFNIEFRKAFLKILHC
Method: (§3) One hundred percent relative activity was normalized to maximum stimulation of endogenous agonists and 0% relative activity to compound vehicle control.
For the D2S agonist assay, cAMP CHO-K1 Hunter cell lines were expanded from freezer stocks according to standard procedures. The cell line manual was followed for cell growth (including cell culture media and supplementation, cell handling and preparation, etc.), test procedures, and signal detection.
as §1

[2] = target: T4, mu-opioid receptor (MOR, OPRM1) (Homo sapiens, UniProt P35372); type: cell-based; conditions: for Increase in the met-enkephalin internalization signal: 10 µM compound, 30 min pre-treatment, then 1 µM met-enkephalin
T4 construct: host or cells: U2OS (methods); the results text b24 says CHO-K1
T4 sequence (P35372 whole entry): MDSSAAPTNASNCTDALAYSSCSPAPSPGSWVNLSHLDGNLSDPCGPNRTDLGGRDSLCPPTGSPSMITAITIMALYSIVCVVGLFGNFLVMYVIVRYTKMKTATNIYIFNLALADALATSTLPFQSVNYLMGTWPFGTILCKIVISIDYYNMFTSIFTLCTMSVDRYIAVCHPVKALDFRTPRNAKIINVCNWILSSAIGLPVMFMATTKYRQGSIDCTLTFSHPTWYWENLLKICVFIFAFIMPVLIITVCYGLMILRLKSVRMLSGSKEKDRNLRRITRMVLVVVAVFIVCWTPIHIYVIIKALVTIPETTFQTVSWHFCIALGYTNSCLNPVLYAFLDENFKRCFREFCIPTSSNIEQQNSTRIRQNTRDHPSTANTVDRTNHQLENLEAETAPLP
Method: For the MOR antagonist/NAM assay, PathHunter® OPRM1 (opioid receptor mu 1) total GPCR (G protein-coupled receptors) internalization U2OS cell lines were expanded from freezer stocks according to standard procedures. The cell line manual was followed for cell growth (including cell culture media and supplementation, cell handling and preparation, etc.), test procedures, and signal detection.
In summary, cells were seeded in a total volume of 20 µL (10,000 cells) into white-walled, 384-well microplates and incubated at 37 °C overnight prior to testing. After preparing a stock acetonitrile solution at a 1 mg/mL concentration of ligand, compound intermediate concentrations were achieved by a 10-point series of 3-fold compound serial dilutions in a compound dilution buffer in a separate dilution plate. The concentration of each dilution was prepared at 10× of the final screening concentration. […] A PerkinElmer Envision instrument was used for chemiluminescent signal detection.

CB2 receptor [3] = target: T2, CB2 receptor; assay: Radioligand binding assay, displacement of [3H]-CP55940 at CB2; conditions: 1 µM compound; 100% = 1 µM WIN55212-2
Method: A total of 750 nl of the reference and test compounds was transferred to a 96-well compound plate, and 150 µL assay buffer was added to each well to achieve a 5× final concentration. The plates were centrifuged for 30 s at 1000 rpm and then agitated at 600 rpm and room temperature for 5 min.
Separately, 50 µL of 0.5% v/v PEI was added to each well of UniFilter-96 GF/C plates. The plates were sealed and incubated at 4 °C for 3 h. After incubation, they were washed 2 times with ice-cold wash buffer.
The cell membrane was diluted with assay buffer, and 330 µL was transferred to 96 round deep-well plates to reach a concentration of 10 µg/well. […] The plates were centrifuged at 1000 rpm for 30 s and then agitated at 600 rpm for 5 min (room temperature). The plates were sealed and incubated at 30 °C for 90 min. The incubation was stopped by vacuum filtration onto GF/C filter plates, followed by washing 4 times with ice-cold wash buffer. The plates were dried at 37 °C for 45 min. After the addition of 40 µL of scintillation cocktail, a Microbeta2 microplate counter was used to detect the radioactivity signals.

5HT-1A receptor = target: T5, 5HT-1A receptor (Homo sapiens, UniProt P08908); assay: 5HT-1A agonist PathHunter β-arrestin assay; design: Emax: dose or concentration left out as unconfirmed; conditions: for Emax: CHO-K1, read-out: 5HT-1A agonism, % of the maximum response of serotonin
T5 sequence (P08908 1-422): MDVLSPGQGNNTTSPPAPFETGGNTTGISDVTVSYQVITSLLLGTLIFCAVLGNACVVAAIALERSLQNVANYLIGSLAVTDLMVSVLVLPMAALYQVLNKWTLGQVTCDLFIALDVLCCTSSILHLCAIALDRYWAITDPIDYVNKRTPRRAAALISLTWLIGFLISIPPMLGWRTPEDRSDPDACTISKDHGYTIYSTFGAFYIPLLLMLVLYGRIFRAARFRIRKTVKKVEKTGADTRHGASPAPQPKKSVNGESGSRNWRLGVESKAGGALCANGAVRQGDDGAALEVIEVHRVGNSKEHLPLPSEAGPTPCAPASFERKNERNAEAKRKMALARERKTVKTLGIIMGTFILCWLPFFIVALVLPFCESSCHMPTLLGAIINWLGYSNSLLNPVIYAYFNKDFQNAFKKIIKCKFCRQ
From the text: as §3
For the 5HT-1A agonist assay, PathHunter® β-arrestin cells (CHO-K1) were expanded from freezer stocks according to standard procedures provided by Eurofins. The cell line manual was followed for cell growth (including cell culture media and supplementation, cell handling and preparation, etc.), test procedure, and signal detection.
In summary, cells were seeded at a total volume of 20 µL (10,000 cells) into white-walled, 384-well microplates and incubated at 37 °C for the appropriate time prior to testing. After preparing stock acetonitrile solution at a 1 mg/mL concentration of ligand, compound intermediate concentrations were achieved by a 10-point series of 3-fold compound serial dilutions in a compound dilution buffer in a separate dilution plate. The concentration of each dilution was prepared at 5× of the final screening concentration. […] Then, 12.5 μL Working Detection Solution was added, and the cells were incubated for 1 h at room temperature in the dark. The assay signal was generated through a single addition of 15 µL (50% v/v) of the PathHunter Detection reagent cocktail, followed by a one-hour incubation at room temperature. Microplates were read following signal generation with a PerkinElmer Envision instrument for chemiluminescent signal detection.

mice = system: mice; design: method as in PMID 31889124; conditions: doses 2.5 to 10 mg/kg; cited from earlier work
MOR = system: MOR; design: method as in PMID 35412886; conditions: 10 µM; cited from earlier work

T1 sequence (P21554 whole entry): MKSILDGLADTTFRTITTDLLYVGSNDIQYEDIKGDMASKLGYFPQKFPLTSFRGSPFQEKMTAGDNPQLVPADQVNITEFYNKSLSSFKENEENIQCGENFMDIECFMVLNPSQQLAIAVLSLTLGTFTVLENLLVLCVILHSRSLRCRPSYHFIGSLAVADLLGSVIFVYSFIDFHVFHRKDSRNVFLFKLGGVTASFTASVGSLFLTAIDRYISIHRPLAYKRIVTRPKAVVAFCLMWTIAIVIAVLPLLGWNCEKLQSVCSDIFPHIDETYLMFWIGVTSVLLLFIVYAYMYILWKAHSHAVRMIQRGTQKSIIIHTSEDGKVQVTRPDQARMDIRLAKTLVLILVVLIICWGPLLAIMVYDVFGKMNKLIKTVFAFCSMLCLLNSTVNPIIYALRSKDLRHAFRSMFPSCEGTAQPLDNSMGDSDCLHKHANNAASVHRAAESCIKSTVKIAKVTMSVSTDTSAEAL

SMILES | Emax (CB1 receptor) [%] | Concentration at which CB1 antagonist activity above the baseline appeared (CB1 receptor) [µM] | IC50 (CB1 receptor; read-out: CB1 antagonist IC50 (not reached within tested range)) [µM] | IC50 (CB2 receptor [1]; read-out: CB2 antagonist IC50 (not reached within tested concentrations)) [µM] | Emax (CB2 receptor [1]) [%] | D2S agonism (in words) (dopamine D2S receptor; within the tested concentration range (up to 12 µM)) | Met-enkephalin-induced mu-opioid internalization (in words) ([2]; 3 µM compound and 1 µM met-enkephalin) | Increase in the met-enkephalin internalization signal [2] [%] | Displacement of radiolabeled CP55940 at the CB2 binding site (CB2 receptor [3]) | EC50 (5HT-1A receptor) [µM] | Emax (5HT-1A receptor) [%] | Emax (dopamine D2S receptor; CHO-K1, read-out: D2S agonist activity, % maximum response of dopamine) [%] | In vivo effects in mice (mice) | Activity of MOR in GTP turnover rate assay (MOR) [%]
C=C(C)[C@@H]1CCC(C)=C[C@H]1c1c(O)cc(CCCCCCC)cc1O [CBDP, cannabidiphorol] | ~20 | 3 | > 12 | > 12 | ~23 | did not show any sign of agonism | significant increase | 37 | approximately 50% | > 12 | ~20 |  |  | 
C=C(C)[C@@H]1CCC(C)=C[C@H]1c1c(O)cc(CCCCC)cc1O [CBD, Cannabidiol, reference compound] | ~20 | 3 |  |  | ~33 |  |  | 18 | approximately 50% | > 12 | ~20 | 10.7 |  | 
CCCCCCCc1cc(O)c2c(c1)OC(C)(C)[C@@H]1CCC(C)=C[C@@H]21 [Δ9-THCP, tetrahydrocannabiphorol] |  |  |  |  |  |  |  |  |  |  |  |  | induce THC-like hypomotility, analgesia, and catalepsy | 
COc1ccc(C2SCCN2S(=O)(=O)c2ccc(Cl)cc2)cc1Br (stereo not drawn) [BMS-986122] |  |  |  |  |  |  |  |  |  |  |  |  |  | 166
